Series [1] relates to N-methyl-N-nitrosourea (MNU)-induced photoreceptor cell degeneration mouse. Description: Electroretinogram (ERG) in MNU-induced photoreceptor cell degeneration mouse. The series is classed as in vivo, C57BL/6 mice. Particulars: MNU 60 mg/kg intraperitoneally, mice. The protocol:
(§1) Six-week-old male C57BL/6 mice were purchased from Orient (Seongnam, Korea) and used after acclimatization for 1 week. N-methyl-N-nitrosourea (MNU, Sigma, USA) was prepared to a concentration of 1% in 0.05% acetic acid solution to induce damage and degeneration of photoreceptor cells among the morphologic changes in retinal tissue seen in macular degeneration, and 7-week-old male C57BL/6 mice were administered 1% MNU solution intraperitoneally at 60 mg/kg per animal. In the normal group, only an equivalent amount of 0.05% acetic acid was administered intraperitoneally. Aucubin was prepared by dissolving in sterile tertiary distilled water to a concentration of 15 mg/kg/day and administered orally once daily for 7 days starting on the same day as MNU administration. An electroretinogram (ERG) is a record of the electrical signals generated by the optic nerve in response to light and is used as an indicator of retinal damage or disease. The inventors measured the electroretinogram. […] After the pupils were dilated, an appropriate amount of 1% methylcellulose was applied to the eyes while maintaining body temperature, and a gold wire loop recording electrode was grounded to the cornea, a reference electrode was placed on the cheek area, and a ground electrode was grounded to the tail, and the ERG was measured using a Retiport (Roland consult, Germany). […]

The subject of series [2] is primary cultured retinal cells. Briefly: Cell viability (MTS assay) of primary cultured retinal cells. Particulars: 24 hours.
Procedure: Retinas were isolated by eye enucleation from C57BL/6 mice (Orient Bio, Seoul, Korea) and dissociated with papain for 15 minutes at 37° C. Neuronal basal medium (Gibco) containing ovomucoid (Sigma Aldrich) and DNase (Sigma Aldrich) was added, and cells were centrifuged at 100×g for 8 min. Cells were resuspended in the above medium without DNase. Retinal cells were maintained in neurobasal medium with L-glutamine and B27 supplement (Gibco). Retinal cells were identified by immunostaining for rhodopsin (a marker for membrane photoreceptor cells) and glial fibrillary acidic protein (Muller glia). The cultured cells contained 65% rod photoreceptor cells and 28% Muller glia. Retinal cells were plated (1*10^4 cells/well) in 96-well plates for 24 hours, and the medium was exchanged with different concentrations of aucubin in the presence or absence of MNU (100 μg/mL) and cultured for 24 hours. Cell viability was then examined using a cell proliferation assay reagent (MTS assay kit, Promega Corporation, Madison, WI, USA).
Series [3] concerns N-methyl-N-nitrosourea (MNU)-induced photoreceptor cell degeneration mouse. Description: 8-OHdG immunohistochemical staining of retinal sections (antioxidant effect). The series is classed as in vivo, C57BL/6 mice. Particulars: aucubin 15 mg/kg/day orally for 7 days; compared to the MNU-treated group. Here is the method:
as §1, with “Aucubin was prepared by dissolving in sterile tertiary distilled water to a concentration of 15 mg/kg/day and administered orally once daily for 7 days starting on the same day as MNU administration. An electroretinogram (ERG) is a record of the electrical signals generated by the optic nerve in response to light and is used as an indicator of retinal damage or disease.” left out
The formation of 8-hydroxydeoxyguanosine (8-OHdG) induced by the oxidation of guanine is a well-known marker for oxidative DNA damage. […] The Invision kit (DAKO, Carpinteria, CA, USA) detected signals visualized with aminoethylcarbazole. […]

In series [4] the test system is primary cultured retinal cells. Briefly: Apoptosis (TUNEL staining) in primary cultured retinal cells. The series is classed as cell-based, C57BL/6 mice. Particulars: aucubin in presence of MNU 100 μg/mL, 24 hours. The protocol: Cells were resuspended in the above medium without DNase. […] MNU treatment was cytotoxic in retinal cells. […] Apoptotic cells were measured by TUNEL staining.

The test system of series [5] is N-methyl-N-nitrosourea (MNU)-induced photoreceptor cell degeneration mouse. Briefly: TUNEL staining of retinal sections (anti-apoptotic effect). The class given is in vivo, C57BL/6 mice. Particulars: aucubin 15 mg/kg/day orally for 7 days; versus MNU-treated group. Here is the method:
as §1, with “An electroretinogram (ERG) is a record of the electrical signals generated by the optic nerve in response to light and is used as an indicator of retinal damage or disease.” left out
Retinal sections were made 4 μm thick. […] In the MNU-treated group, a number of apoptotic cells were observed, but these were mainly detected in the outer nuclear layer.

Series [6] shares this test system. Briefly: Histopathology (H&E), outer nuclear layer thickness of retinal tissue. The class given is in vivo, C57BL/6 mice. Particulars: aucubin 15 mg/kg/day orally for 7 days; MNU 60 mg/kg intraperitoneally. Here is the method:
as §1, with “Aucubin was prepared by dissolving in sterile tertiary distilled water to a concentration of 15 mg/kg/day and administered orally once daily for 7 days starting on the same day as MNU administration. An electroretinogram (ERG) is a record of the electrical signals generated by the optic nerve in response to light and is used as an indicator of retinal damage or disease.” left out
After the end of study drug (aucubin) administration, necropsy was performed and the eyes were enucleated, fixed in 10% neutralized formalin for 1 day, and embedded in paraffin to prepare slide sections. […] Photoreceptor cell damage & deformation was assessed by measuring the change in thickness of the outer nuclear layer (ONL) of retinal tissue. […]

The subject of series [7] is primary cultured retinal cells. Briefly: Oxidative stress (DCFH fluorescent probe) in primary cultured retinal cells. Particulars: aucubin in presence of MNU 100 μg/mL, 24 hours. The class given is cell-based, C57BL/6 mice.

As for `CN(N=O)C(N)=O` [MNU, N-methyl-N-nitrosourea], in series [1], the “reduction of a-wave amplitude” value is recorded as 78% and the “reduction of b-wave amplitude” value amounted to 63%. For the same compound, the “cell viability compared to control cells” value in series [2] (100 μg/ml MNU alone) is “approximately 70%”.
For `OCC1=C[C@@H](O)[C@@H]2C=CO[C@@H](O[C@@H]3O[C@H](CO)[C@@H](O)[C@H](O)[C@H]3O)[C@H]12` [aucubin], in series [3], the “8-OHdG levels (oxidative DNA damage) in retina” value is listed as “significantly reduced”. Besides, in series [4], the “apoptotic cells (TUNEL staining)” value is “significantly decreased”. In addition, in series [5], the “photoreceptor cell death (TUNEL-positive apoptotic cells) in retina” value is recorded as “significantly prevented this cell death”. In addition, the “reduction of photoreceptor cell loss (ONL thickness)” value in series [6] is reported as 9.8%+2.9%. In addition, the “oxidative stress (DCFH dye)” value in series [7] is on record as “significantly decreased”. Moreover, the “cell viability in presence of MNU” value in series [2] (various concentrations of aucubin, MNU 100 μg/mL) is reported as “cell viability was restored in a dose-dependent manner”.
